Experimental data as given in patent publication US9758492B2, “IDO inhibitors” (Bristol-Myers Squibb Company, priority 2013, dated 2017).

Tests used:
IDO [1] = target: T1, IDO (Homo sapiens, UniProt P14902); assay: Kynurenine assay in Hela cells stimulated with IFN-γ to express IDO; assay type: cell-based; set-up: endogenous in cells; host or cells: HeLa (ATCC CCL-2), stimulated with human recombinant IFN-gamma; settings: 20 h, read-out: Hela Kyurenine (IC50)
Experimental: IFNg (R&D, 28-IF-100)—resuspend at 10 ug/mL in PBS with 0.1% BSA 30% TCA
Ehrlich reagent (2% w/v p-dimethylaminobenzaldehyde in glacial acetic acid)
Cell Titer 96 Aqueous Non-Radioactive Cell Proliferation Assay, MTS (Promega, Cat # G5430)
Cell Lines and Culture Conditions
Hela cancer cell lines were acquired from the American Type Culture Collection. Cells were maintained in phenol red free-RPMI1640 medium containing high glucose and L-glutamine (Invitrogen) supplemented with 10% fetal bovine serum (FBS; Invitrogen). Cell cultures were incubated at 37° C., 5% CO2, and 100% humidity.
Cell Treatment and Kynurenine Assay
Hela cells were seeded on 96-well plates (40,000 cells per well) and allowed to adhere for 5-6 hours. Cells were then treated with vehicle (DMSO) or with IDO inhibitor at a top dose of 30 μM (3-fold dilution all the way down to 1.5 nM). A final concentration of 100 ng/mL of human recombinant IFN-γ (R&D, 28-IF-100) was immediately added to the cells to stimulate IDO expression. Treated cells were then incubated for 20 hours at 37° C. At the end of the 20 h incubation, reactions were terminated by the addition of 30% TCA to each well. Plates were incubated for 30 minutes at 50° C. to hydrolyze N-formylkynurenine to kynurenine. Cells were centrifuged 10 minutes at 2400 rpm. 100 ul of supernatants were transferred to new 96 flat well plates and mixed with 100 ul Ehrlich reagent. The resulting solution was incubated 10 minutes at RT. Absorbance at 490 nm was read using Spectra Max 384 (Molecular Devices).

IDO [2] = target: T1, IDO; assay: LLE_IDO_ABS_DR (IDO assay)
Human IDO1 = target: T2, Human IDO1 (Homo sapiens, UniProt P14902); assay: IDO Kynurenine Assay with Human IDO1/HEK293 Cells; assay type: cell-based; settings: read-out: HEK human IDO-1 (IC50)
T2 construct: expressed in transfected cells; host or cells: HEK293
Summary of the method: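 HEK293 cells stably expressing human IDO1, in phenol red-free RPMI/10% FBS, exposed to compound for 20 h at 37 °C. Stopped with 0.2% TCA (50 °C, 30 min); kynurenine in supernatant detected with Ehrlich reagent, absorbance 490 nm.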

T1 sequence (P14902 whole entry): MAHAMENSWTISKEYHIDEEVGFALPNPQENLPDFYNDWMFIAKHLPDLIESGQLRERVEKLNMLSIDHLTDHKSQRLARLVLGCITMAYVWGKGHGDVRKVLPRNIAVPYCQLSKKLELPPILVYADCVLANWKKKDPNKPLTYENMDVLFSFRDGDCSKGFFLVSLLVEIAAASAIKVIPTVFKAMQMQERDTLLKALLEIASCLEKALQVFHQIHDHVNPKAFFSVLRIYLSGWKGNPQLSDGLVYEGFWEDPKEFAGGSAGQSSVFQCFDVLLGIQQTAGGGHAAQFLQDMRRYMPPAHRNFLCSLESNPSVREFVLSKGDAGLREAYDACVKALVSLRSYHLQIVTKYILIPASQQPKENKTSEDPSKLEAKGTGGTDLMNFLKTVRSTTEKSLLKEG
T2 sequence (P14902 whole entry): as above

| SMILES | IC50 (IDO [1]) [nM] | IC50 (IDO [2]) [nM] | IC50 (Human IDO1) [nM] |
| --- | --- | --- | --- |
| COc1ccc(-c2ccc(N(C)C3CCCCC3)c(NC(=O)Nc3ccc(C)cc3)c2)cc1C(=O)O [Example 43, 4′-(cyclohexyl (methyl)amino)-4-methoxy-3′-(3-p-tolylureido)biphenyl-3-carboxylic acid] | 1430 |  |  |
| CCCN(CC1CC1)c1ccc(-c2ccccc2-c2nnn[nH]2)cc1NC(=O)Nc1ccc(C)cc1 [Example 59, 1-(4-((cyclopropylmethyl) (propyl)amino)-2′-(1H-tetrazol-5-yl)biphenyl-3-yl)-3-p-tolylurea] | 10 | 20 |  |
| COCCN(CCOC)c1ccc(-c2ccccc2C(=O)O)cc1NC(=O)Nc1ccc(C)cc1 [Example 56, 4′-(bis(2-methoxyethyl)amino)-3′-(3-p-tolylureido)biphenyl-2-carboxylic acid] | 3120 | 3590 |  |
| Cc1ccc(NC(=O)Nc2cc(-c3ccccc3C(=O)O)ccc2N(CC(F)F)CC2CC2)cc1 [Example 61] | 700 | 510 |  |
| Cc1ccc(NC(=O)Nc2cc(-c3ccccc3-c3nnn[nH]3)ccc2N(C)C2CCCCC2)cc1 [Example 44, 1-(4-(cyclohexyl (methyl)amino)-2′-(1H-tetrazol-5-yl)biphenyl-3-yl)-3-p-tolylurea] | 1.72 | 7.93 |  |
| CN(c1ccc(-c2ccccc2-c2nnn[nH]2)cc1NC(=O)Nc1ccccc1F)C1CCCCC1 [Example 214, 1-(4-(cyclohexyl(methyl)amino)-2′-(1H-tetrazol-5-yl)biphenyl-3-yl)-3-(2-fluorophenyl)urea] | 1.07 | 2.36 |  |
| Cc1ccc(NC(=O)Nc2cc(-c3ccccc3C(=O)O)ccc2N2CCC[C@@H]3CCCC[C@@H]32)cc1 [Example 49, 4′-((4aS,8aS)-octahydroquinolin-1(2H)-yl)-3′-(3-p-tolylureido)biphenyl-2-carboxylic acid] | 180 | 160 |  |
| Cc1ccc(NC(=O)Nc2cc(-c3ccccc3C(=O)O)c(F)cc2N(CC(F)F)CC2CC2)cc1 [Example 224, 4′-((cyclopropylmethyl)(2,2-difluoroethyl)amino)-2′-fluoro-5′-(3-p-tolylureido)biphenyl-2-carboxylic acid] | 440 | 640 |  |
| CN(c1ncc(-c2ccccc2-c2nnn[nH]2)cc1NC(=O)Nc1ccccc1F)C1CCCCC1 [Example 37, 1-(5-(2-(1H-Tetrazol-5-yl)phenyl)-2-(cyclohexyl(methyl)amino)pyridin-3-yl)-3-(2-fluorophenyl)urea] | 10 | 40 |  |
| Cc1ccc(NC(=O)Nc2cc(-c3ccccc3-c3nnn[nH]3)c(F)cc2N(C)C2CCCCC2)cc1 [Example 222, 1-(4-(cyclohexyl(methyl)ami-no)-6-fluoro-2′-(1H-tetrazol-5-yl)biphenyl-3-yl)-3-p-tolylurea] | 2.63 | 10 |  |
| Cc1ccc(NC(=O)Nc2cc(-c3ccccc3C(=O)O)ccc2N(C)C2CCOCC2)cc1 [Example 51, 4′-(methyl(tetra-hydro-2H-pyran-4-yl)amino)-3′-(3-p-tolylureido)biphenyl-2-carboxylic acid] | 2130 |  |  |
| COc1ccc(-c2ccc(N(C)C3CCCCC3)c(NC(=O)Nc3ccccc3Cl)c2)cc1C(=O)O [Example 42, 3′-(3-(2-chlorophenyl)ureido)-4′-(cyclohexyl(methyl)amino)-4-methoxybiphenyl-3-carboxylic acid] | 1170 |  |  |
| O=C(Nc1ccc(C(F)(F)F)cc1F)Nc1cc(-c2ccccc2-c2nnn[nH]2)ccc1N(CCC(F)(F)F)Cc1ccccn1 [Example 303, 1-(2-fluoro-4-(trifluoromethyl)phenyl)-3-(4-((pyridin-2-ylmethyl)(3,3,3-trifluoropropyl)amino)-2′-(1H-tetrazol-5-yl)-[1,1′-biphenyl]-3-yl)urea] |  | 50 | 280 |
| Cc1ccc(NC(=O)Nc2cc(-c3ccccc3-c3nnn[nH]3)ccc2N(CCC(F)(F)F)Cc2cccc(Cl)c2)cc1 [Example 13, 1-(4-((3-Chlorobenzyl)(3,3,3-trifluoropropyl)amino)-2′-(1H-tetrazol-5-yl)-[1,1′-biphenyl]-3-yl)-3-(p-tolyl)urea] |  | 30 | 60 |
| CC(C)CN(Cc1ccccc1)c1ccc(-c2ccccc2-c2nnn[nH]2)cc1NC(=O)Nc1ccc(C2CC2)cc1 [Example 291, 1-(4-(Benzyl(isobutyl)amino)-2′-(1H-tetrazol-5-yl)-[1,1′-biphenyl]-3-yl)-3-(4-cyclopropylphenyl)urea] |  | 90 | 1830 |
| O=C(Nc1ccc(C(F)(F)F)cc1F)Nc1cc(-c2ccccc2-c2nnn[nH]2)ccc1N(CCC(F)(F)F)Cc1ccc(OC(F)(F)F)cc1 [Example 301, 1-(2′-(1H-tetrazol-5-yl)-4-((4-(trifluoromethoxy)benzyl)(3,3,3-trifluoropropyl)amino)-[1,1′-biphenyl]-3-yl)-3-(2-fluoro-4-(trifluoromethyl)phenyl)urea] |  | 2.85 | 7.87 |
| O=C(Nc1ccc(C2CC2)cc1)Nc1cc(-c2ccccc2-c2nn[nH]n2)ccc1N1CC2CC1CN2Cc1ccccc1 (stereo not drawn) [Example 348, 1-(4-(5-benzyl-2,5-diazabicyclo[2.2.1]heptan-2-yl)-2′-(2H-tetrazol-5-yl)-[1,1′-biphenyl]-3-yl)-3-(4-cyclopropylphenyl)urea] |  | 10 | 10 |
| Cc1ccc(NC(=O)Nc2cc(-c3ccccc3-c3nnn[nH]3)ccc2N(CCC(F)(F)F)Cc2ccc(OC(F)(F)F)cc2)cc1 [Example 341, 1-(2′-(1H-tetrazol-5-yl)-4-((4-(trifluoromethoxy)benzyl)(3,3,3-trifluoropropyl)amino)-[1,1′-biphenyl]-3-yl)-3-(p-tolyl)urea] |  | 1.73 | 0.845 |
| Cc1ccc(NC(=O)Nc2cc(-c3cccc(F)c3C(=O)O)ccc2N(CC(C)C)CC(C)C)cc1 [Example 150, 4′-(diisobutylamino)-3-fluoro-3′-(3-p-tolylureido)biphenyl-2-carboxylic acid] |  | 40 | 60 |
| CC(C)CN(CC1CC(F)(F)C1)c1ccc(-c2ccccc2-c2nnn[nH]2)cc1NC(=O)Nc1cc(C(C)C)no1 [Example 384] |  | 1640 | 1890 |
| Cc1ccc(NC(=O)Nc2cc(-c3ccccc3-c3nnn[nH]3)ccc2N2C[C@@H]3C[C@H]2CN3c2ccc(F)cc2)cc1 [Example 383] |  | 70 | 130 |
| O=C(Nc1ccc(C2CC2)c(F)c1)Nc1cc(-c2ccccc2-c2nnn[nH]2)ccc1N(CCC(F)(F)F)Cc1ccc(OC(F)(F)F)cc1 [Example 353, 1-(2′-(1H-tetrazol-5-yl)-4-((4-(trifluoromethoxy)benzyl)(3,3,3-trifluoro-propyl)amino)-[1,1′-biphenyl]-3-yl)-3-(4-cyclopropyl-3-fluorophenyl)urea] |  | 5.1 | 2.37 |
| O=C(Nc1ccc(F)cc1F)Nc1cc(-c2ccccc2-c2nnn[nH]2)ccc1N(CCCC(F)(F)F)Cc1ccc(Cl)cc1 [Example 319, 1-(4-((4-chlorobenzyl)(4,4,4-trifluorobutyl)amino)-2′-(1H-tetrazol-5-yl)-[1,1′-biphenyl]-3-yl)-3-(2,4-difluorophenyl) urea] |  | 20 | 20 |
| Cc1ccc(NC(=O)Nc2cc(-c3ccccc3-c3nnn[nH]3)ccc2N2CCCc3ccccc32)cc1 [Example 361, 1-(4-(3,4-Dihydroquinolin-1(2H)-yl)-2′-(1H-tetrazol-5-yl)-[1,1′-biphenyl]-3-yl)-3-(p-tolyl)urea] |  | 110 | 220 |
